Laboratory results reported in ChEMBL document CHEMBL3627608, “Crystal structures of human RIP2 kinase catalytic domain complexed with ATP-competitive inhibitors: Foundations for understanding inhibitor selectivity” (Bioorg Med Chem, 2015).

Assays:
[1] = biological target: SRSF protein kinase 1 (Homo sapiens) (UniProt Q96SB4); experiment: Inhibition of SRPK1 (unknown origin) at 10 uM after 120 mins P33 radiolabeled kinase activity assay
[2] = biological target: Mitogen-activated protein kinase kinase kinase kinase 4 (Homo sapiens) (UniProt O95819); experiment: Inhibition of HGK (unknown origin) at 10 uM after 120 mins P33 radiolabeled kinase activity assay
[3] = biological target: Cyclin-dependent kinase 14 (Homo sapiens) (UniProt O94921); experiment: Inhibition of PFTK1 (unknown origin) at 10 uM after 120 mins P33 radiolabeled kinase activity assay
[4] = biological target: cAMP-dependent protein kinase catalytic subunit beta (Homo sapiens) (UniProt P22694); experiment: Inhibition of PKAcbeta (unknown origin) at 10 uM after 120 mins P33 radiolabeled kinase activity assay
[5] = biological target: Receptor tyrosine-protein kinase erbB-2 (Homo sapiens) (UniProt P04626); experiment: Inhibition of ERBB2 (unknown origin) at 10 uM after 120 mins P33 radiolabeled kinase activity assay
[6] = biological target: Casein kinase II subunit alpha (Homo sapiens) (UniProt P68400); experiment: Inhibition of CK2alpha (unknown origin) at 10 uM after 120 mins P33 radiolabeled kinase activity assay
Chain of Casein kinase II subunit alpha (Homo sapiens) (P68400 whole entry, looked up): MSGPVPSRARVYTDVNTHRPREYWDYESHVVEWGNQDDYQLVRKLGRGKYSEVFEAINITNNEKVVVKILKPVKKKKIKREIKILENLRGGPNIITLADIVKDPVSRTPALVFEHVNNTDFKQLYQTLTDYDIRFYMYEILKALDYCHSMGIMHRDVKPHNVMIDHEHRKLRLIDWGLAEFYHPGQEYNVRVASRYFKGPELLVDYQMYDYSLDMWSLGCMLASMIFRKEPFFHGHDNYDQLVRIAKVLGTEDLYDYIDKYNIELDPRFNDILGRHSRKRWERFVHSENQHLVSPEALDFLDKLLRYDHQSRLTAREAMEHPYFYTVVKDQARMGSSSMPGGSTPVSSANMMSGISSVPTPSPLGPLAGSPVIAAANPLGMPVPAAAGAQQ

[7] = biological target: Myosin light chain kinase 2, skeletal/cardiac muscle (Homo sapiens) (UniProt Q9H1R3); experiment: Inhibition of MLCK2 (unknown origin) at 10 uM after 120 mins P33 radiolabeled kinase activity assay
Chain of Myosin light chain kinase 2, skeletal/cardiac muscle (Homo sapiens) (Q9H1R3 whole entry): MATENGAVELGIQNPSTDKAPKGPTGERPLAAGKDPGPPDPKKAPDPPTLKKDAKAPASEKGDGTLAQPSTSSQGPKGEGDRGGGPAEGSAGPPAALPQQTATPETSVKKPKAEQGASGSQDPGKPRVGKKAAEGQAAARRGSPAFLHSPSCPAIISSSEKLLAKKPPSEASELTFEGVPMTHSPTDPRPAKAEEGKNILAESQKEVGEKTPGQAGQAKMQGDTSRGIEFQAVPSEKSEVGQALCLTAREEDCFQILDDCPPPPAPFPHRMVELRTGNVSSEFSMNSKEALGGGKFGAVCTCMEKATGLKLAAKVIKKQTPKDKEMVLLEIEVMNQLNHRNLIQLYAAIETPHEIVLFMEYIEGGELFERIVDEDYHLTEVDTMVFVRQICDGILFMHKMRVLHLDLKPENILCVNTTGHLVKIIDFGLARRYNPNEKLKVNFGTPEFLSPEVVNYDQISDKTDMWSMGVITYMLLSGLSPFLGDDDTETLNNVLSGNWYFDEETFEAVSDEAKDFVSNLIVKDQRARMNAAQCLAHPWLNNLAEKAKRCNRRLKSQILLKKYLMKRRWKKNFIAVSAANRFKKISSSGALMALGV

Homo sapiens = species: Homo sapiens; experiment: Inhibition of PKG1beta (unknown origin) at 10 uM after 120 mins P33 radiolabeled kinase activity assay
[8] = biological target: T1, Beta-adrenergic receptor kinase 1 (Homo sapiens) (UniProt P25098); experiment: Inhibition of GRK2 (unknown origin) at 10 uM after 120 mins P33 radiolabeled kinase activity assay
T1 sequence (whole entry): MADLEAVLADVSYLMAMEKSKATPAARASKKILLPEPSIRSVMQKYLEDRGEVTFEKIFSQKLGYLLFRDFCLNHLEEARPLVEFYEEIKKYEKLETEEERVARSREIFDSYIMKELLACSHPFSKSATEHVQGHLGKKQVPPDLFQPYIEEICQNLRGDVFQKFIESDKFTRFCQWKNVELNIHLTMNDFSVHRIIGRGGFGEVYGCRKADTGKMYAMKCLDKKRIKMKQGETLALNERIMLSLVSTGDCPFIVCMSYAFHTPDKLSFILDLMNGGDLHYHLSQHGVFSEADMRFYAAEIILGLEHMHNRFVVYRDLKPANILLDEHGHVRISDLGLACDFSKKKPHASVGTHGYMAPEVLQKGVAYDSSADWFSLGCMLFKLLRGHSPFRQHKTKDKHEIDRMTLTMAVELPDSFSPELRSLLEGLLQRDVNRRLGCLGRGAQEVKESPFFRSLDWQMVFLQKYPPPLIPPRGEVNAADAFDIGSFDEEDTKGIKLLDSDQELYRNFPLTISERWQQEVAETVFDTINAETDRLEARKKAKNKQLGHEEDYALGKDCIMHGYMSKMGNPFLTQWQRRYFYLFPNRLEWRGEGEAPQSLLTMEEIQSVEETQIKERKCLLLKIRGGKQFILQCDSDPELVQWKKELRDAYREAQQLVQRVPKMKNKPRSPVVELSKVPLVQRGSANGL

[9] = biological target: T2, Serine/threonine-protein kinase Nek1 (Homo sapiens) (UniProt Q96PY6); experiment: Inhibition of NEK1 (unknown origin) at 10 uM after 120 mins P33 radiolabeled kinase activity assay
T2 sequence (whole entry): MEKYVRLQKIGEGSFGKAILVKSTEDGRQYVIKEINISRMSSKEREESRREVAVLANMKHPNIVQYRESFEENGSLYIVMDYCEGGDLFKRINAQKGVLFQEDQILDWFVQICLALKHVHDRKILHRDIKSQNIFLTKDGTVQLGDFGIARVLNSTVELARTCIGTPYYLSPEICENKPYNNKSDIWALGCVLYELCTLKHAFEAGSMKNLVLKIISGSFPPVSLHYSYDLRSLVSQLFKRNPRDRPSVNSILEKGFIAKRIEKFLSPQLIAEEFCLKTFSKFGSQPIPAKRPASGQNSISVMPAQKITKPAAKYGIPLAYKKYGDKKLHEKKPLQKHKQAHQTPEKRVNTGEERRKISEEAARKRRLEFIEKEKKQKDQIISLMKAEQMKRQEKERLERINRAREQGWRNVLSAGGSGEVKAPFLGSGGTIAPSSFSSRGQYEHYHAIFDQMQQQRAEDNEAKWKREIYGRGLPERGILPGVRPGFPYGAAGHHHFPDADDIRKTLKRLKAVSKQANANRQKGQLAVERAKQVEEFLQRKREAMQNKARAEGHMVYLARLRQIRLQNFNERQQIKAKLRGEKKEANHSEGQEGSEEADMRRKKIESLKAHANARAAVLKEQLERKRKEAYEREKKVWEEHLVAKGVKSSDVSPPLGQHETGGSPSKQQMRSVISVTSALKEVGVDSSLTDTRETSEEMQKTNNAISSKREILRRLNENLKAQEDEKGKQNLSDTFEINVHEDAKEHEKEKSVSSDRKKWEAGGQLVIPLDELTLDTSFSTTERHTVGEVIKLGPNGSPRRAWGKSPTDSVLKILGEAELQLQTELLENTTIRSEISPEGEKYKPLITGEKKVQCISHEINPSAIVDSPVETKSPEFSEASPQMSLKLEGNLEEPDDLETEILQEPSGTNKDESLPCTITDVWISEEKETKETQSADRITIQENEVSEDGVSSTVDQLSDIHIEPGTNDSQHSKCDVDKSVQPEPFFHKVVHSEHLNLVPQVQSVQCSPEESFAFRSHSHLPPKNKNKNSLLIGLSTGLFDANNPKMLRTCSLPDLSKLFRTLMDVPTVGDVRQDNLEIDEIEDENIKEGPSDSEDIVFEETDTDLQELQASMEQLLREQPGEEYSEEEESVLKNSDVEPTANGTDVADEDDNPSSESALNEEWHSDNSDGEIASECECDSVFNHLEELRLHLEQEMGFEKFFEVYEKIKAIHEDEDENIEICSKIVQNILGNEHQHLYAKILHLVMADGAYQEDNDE

[10] = biological target: Protein-tyrosine kinase 2-beta (Homo sapiens) (UniProt Q14289); experiment: Inhibition of PYK2 (unknown origin) at 10 uM after 120 mins P33 radiolabeled kinase activity assay
Chain of Protein-tyrosine kinase 2-beta (Homo sapiens) (Q14289 whole entry, looked up): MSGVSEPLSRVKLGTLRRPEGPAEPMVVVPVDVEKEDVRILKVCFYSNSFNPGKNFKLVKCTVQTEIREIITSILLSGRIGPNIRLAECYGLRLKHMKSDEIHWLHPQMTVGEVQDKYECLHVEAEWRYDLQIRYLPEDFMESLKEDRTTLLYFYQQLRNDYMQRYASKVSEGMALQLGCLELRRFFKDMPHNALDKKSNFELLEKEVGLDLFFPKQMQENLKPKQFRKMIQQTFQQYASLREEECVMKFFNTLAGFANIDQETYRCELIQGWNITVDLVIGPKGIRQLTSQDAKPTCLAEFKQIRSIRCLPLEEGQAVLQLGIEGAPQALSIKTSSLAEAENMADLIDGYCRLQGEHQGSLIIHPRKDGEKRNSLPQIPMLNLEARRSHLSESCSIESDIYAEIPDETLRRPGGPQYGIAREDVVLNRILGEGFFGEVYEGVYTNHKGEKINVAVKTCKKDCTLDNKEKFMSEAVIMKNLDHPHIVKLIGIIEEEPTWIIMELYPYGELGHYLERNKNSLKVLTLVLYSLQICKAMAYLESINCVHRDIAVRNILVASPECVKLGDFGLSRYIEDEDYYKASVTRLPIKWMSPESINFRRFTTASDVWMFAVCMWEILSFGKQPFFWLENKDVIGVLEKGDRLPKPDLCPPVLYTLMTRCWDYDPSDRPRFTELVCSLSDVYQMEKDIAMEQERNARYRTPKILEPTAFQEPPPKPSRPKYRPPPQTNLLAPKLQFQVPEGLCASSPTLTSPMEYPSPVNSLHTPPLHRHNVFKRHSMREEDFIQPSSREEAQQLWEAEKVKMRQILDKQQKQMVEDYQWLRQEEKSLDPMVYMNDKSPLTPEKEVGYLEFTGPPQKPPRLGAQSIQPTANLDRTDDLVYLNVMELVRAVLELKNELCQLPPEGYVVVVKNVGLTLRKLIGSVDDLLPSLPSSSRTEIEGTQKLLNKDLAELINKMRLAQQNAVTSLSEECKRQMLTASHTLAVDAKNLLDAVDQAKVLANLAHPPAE

[11] = biological target: ALK tyrosine kinase receptor (Homo sapiens) (UniProt Q9UM73); experiment: Inhibition of ALK (unknown origin) at 10 uM after 120 mins P33 radiolabeled kinase activity assay
Chain of ALK tyrosine kinase receptor (Homo sapiens) (Q9UM73 19-1620 limits assumed): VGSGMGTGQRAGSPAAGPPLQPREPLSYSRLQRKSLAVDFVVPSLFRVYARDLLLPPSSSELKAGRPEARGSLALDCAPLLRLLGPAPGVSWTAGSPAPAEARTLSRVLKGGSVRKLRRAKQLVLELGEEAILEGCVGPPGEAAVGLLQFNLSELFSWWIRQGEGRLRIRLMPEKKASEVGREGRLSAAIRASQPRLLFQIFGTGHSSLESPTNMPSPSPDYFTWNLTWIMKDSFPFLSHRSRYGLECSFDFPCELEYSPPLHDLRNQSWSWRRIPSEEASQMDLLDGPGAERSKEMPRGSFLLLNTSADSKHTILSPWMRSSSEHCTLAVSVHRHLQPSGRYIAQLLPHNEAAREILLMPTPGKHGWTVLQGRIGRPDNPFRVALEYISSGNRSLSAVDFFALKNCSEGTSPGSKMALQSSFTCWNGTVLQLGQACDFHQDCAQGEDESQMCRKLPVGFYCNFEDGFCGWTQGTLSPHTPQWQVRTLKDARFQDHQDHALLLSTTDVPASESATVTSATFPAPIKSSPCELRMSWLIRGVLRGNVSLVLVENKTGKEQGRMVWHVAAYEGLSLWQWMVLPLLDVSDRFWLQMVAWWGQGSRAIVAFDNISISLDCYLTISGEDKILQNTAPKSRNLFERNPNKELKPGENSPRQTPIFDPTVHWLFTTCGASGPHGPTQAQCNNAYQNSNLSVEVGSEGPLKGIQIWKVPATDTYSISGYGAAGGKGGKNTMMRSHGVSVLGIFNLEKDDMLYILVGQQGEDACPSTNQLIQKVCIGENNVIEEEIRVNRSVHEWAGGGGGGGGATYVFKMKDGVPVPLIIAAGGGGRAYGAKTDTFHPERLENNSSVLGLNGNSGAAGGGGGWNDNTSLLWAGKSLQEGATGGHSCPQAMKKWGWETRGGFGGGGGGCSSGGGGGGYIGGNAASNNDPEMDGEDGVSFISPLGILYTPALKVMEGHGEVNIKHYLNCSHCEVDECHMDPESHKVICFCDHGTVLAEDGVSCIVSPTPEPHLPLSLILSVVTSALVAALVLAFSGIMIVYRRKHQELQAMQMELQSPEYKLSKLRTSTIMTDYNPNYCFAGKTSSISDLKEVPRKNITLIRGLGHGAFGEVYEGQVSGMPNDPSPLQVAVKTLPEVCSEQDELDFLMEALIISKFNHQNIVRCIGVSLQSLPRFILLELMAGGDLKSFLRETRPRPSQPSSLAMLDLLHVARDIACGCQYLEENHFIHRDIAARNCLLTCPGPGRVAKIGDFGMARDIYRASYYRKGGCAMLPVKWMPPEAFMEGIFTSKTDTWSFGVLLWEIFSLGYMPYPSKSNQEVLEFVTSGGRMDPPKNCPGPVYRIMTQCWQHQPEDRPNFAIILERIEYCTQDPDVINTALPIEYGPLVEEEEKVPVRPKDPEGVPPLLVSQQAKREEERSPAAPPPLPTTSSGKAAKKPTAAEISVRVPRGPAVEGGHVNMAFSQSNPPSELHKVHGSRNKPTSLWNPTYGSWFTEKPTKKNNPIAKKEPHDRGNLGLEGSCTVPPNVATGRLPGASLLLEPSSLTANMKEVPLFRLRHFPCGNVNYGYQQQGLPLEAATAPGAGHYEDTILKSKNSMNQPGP

[12] = biological target: Activin receptor type-1-like (Homo sapiens) (UniProt P37023); experiment: Inhibition of ALK1 (unknown origin) at 10 uM after 120 mins P33 radiolabeled kinase activity assay
Chain of Activin receptor type-1-like (Homo sapiens) (P37023 whole entry): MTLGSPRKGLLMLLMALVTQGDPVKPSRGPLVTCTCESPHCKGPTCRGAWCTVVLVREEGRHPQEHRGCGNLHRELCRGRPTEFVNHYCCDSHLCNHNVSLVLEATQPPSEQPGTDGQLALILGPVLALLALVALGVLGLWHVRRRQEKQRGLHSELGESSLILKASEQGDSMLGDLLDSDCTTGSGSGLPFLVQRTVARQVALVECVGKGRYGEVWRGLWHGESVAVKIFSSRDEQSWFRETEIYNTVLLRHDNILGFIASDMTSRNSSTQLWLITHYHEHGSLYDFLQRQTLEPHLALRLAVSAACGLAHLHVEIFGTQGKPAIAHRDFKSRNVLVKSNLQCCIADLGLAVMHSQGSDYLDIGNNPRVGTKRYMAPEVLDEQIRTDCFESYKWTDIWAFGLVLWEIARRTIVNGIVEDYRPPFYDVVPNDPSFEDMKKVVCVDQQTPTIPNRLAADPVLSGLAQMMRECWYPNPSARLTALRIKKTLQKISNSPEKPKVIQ

[13] = biological target: Ribosomal protein S6 kinase alpha-5 (Homo sapiens) (UniProt O75582); experiment: Inhibition of MSK1 (unknown origin) at 10 uM after 120 mins P33 radiolabeled kinase activity assay
Chain of Ribosomal protein S6 kinase alpha-5 (Homo sapiens) (O75582 whole entry, looked up): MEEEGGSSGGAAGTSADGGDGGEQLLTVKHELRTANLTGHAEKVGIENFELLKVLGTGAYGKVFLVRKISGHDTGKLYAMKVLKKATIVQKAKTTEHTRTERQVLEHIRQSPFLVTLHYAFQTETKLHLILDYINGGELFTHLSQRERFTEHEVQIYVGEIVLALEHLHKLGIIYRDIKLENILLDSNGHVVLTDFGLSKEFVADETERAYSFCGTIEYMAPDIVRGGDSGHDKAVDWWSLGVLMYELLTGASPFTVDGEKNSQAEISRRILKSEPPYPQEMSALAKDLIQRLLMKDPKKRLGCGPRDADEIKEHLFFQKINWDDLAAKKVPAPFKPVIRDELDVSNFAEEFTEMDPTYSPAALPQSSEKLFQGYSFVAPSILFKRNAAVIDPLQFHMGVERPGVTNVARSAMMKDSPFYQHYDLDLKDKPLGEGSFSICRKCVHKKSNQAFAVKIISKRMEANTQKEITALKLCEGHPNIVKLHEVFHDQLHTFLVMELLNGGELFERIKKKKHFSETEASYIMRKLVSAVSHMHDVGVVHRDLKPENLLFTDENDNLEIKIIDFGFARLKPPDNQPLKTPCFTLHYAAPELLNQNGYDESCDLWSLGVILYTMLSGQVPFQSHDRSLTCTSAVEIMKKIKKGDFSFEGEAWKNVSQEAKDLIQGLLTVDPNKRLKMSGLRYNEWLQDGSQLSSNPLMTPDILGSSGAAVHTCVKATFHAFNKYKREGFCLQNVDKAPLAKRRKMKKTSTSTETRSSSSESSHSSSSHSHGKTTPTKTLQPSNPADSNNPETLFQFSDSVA

Row | inhibition [1] | inhibition [2] | inhibition [3] | inhibition [4] | inhibition [5] | inhibition [6] | inhibition [7] | inhibition (Homo sapiens) | inhibition [8] | inhibition [9] | inhibition [10] | inhibition [11] | inhibition [12] | inhibition [13] | Compound
1 | 5.66% | 57.7% | -3.92% | -0.18% | 2.53% | 8.6% | 12.1% | -4.49% | 2.91% | 2.5% | 7.67% | 0.02% | 28.2% | 7.07% | COCCNC(=O)c1ccc2c(c1)nc(-c1cnc(-c3ccc(Cl)cc3)[nH]1)n2CCOC
2 | 18.5% | 63.3% | 50.9% | -0.07% | 95.3% | 19.7% | 30.2% | 2.75% | 4.42% | 15.4% | 23.7% | 6.1% | 96.2% | 5.17% | CS(=O)(=O)c1cccc(Nc2nccc(-c3sc(N4CCOCC4)nc3-c3cccc(NS(=O)(=O)c4c(F)cccc4F)c3)n2)c1
3 | 59.1% | 99.8% | 86.7% | 55.2% | -7.24% | 20% | 53.2% | 15.2% | 2.3% | 12.5% | 16.5% | 17.4% | 3.54% | 49.5% | CC(C)(C)c1cc(NC(=O)Nc2ccc(Oc3ccncc3)cc2)no1
